Laboratory results from PubChem BioAssay (NCI).
Where “and” joins values, the source holds several entries; their conditions need not be identical. Equal values may be shown once.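 Each compound was tested at five concentrations against cells in 96-well plates for 48 hours. The concentration for 50% growth inhibition is given as GI50. The concentration for full growth arrest is given as TGI.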

Experiments:
Test in all cases: NCI tumour cell line growth inhibition, 48 h
[1] = test system: SF-539 CNS
[2] = test system: SN12C renal
[3] = test system: HL-60(TB) leukemia
[4] = test system: KM12 colon
[5] = test system: SF-268 CNS
[6] = test system: MOLT-4 leukemia
[7] = test system: COLO 205 colon
[8] = test system: SNB-75 CNS
[9] = test system: SK-OV-3 ovarian
[10] = test system: EKVX NSCLC

| SMILES | TGI [1] [µM] | TGI [2] [µM] | GI50 [3] [µM] | TGI [3] [µM] | TGI [4] [µM] | GI50 [5] | TGI [5] [µM] | TGI [6] [µM] | TGI [7] [µM] | TGI [8] [µM] | TGI [9] [µM] | TGI [10] [µM] | GI50 [1] [µM] | GI50 [2] [µM] | GI50 [4] [µM] | GI50 [7] [µM] | GI50 [8] [µM] | GI50 [9] [nM] | GI50 [10] [µM] | GI50 [6] [nM] |
| --- | --- | --- | --- | --- | --- | --- | --- | --- | --- | --- | --- | --- | --- | --- | --- | --- | --- | --- | --- | --- |
| O=C(O)/C=C/c1cnc[nH]1 | > 500 | > 500 | > 500 | > 500 | > 500 | > 500 µM and 70 µM | > 500 | > 500 | > 500 | > 500 | > 500 | > 500 |  |  |  |  |  |  |  |  |
| COc1ccc2c(c1)O[C@H]1c3ccc(O)cc3OC[C@@H]21 | 49.9 | > 100 |  | 49.8 |  |  | > 100 | 55.2 | 57 | 47.1 | 98.9 | > 100 |  |  |  |  |  |  |  |  |
| COc1cccc(C2C(C(=O)O)=C(CO)Oc3cc4c(cc32)OCO4)c1 (stereo unspecified) | > 100 | > 100 |  | > 100 |  |  | > 100 | > 100 | > 100 | > 100 | > 100 | > 100 |  |  |  |  |  |  |  |  |
| CCSc1nc(N2CCCCC2)c2cn[nH]c2n1 | 48.3 | > 100 | 27.4 | > 100 | > 100 | 23.6 µM | 65.8 |  | 56.8 | > 100 | > 100 | > 100 | 12.4 | 25.7 | 29 | 21.3 | 74.9 | > 100000 | 16.1 |  |
| CCOC(=O)C1(C(=O)OCC)CSC1 |  | > 100 |  |  | > 100 |  | > 100 | > 100 | > 100 | > 100 | > 100 |  |  |  |  |  |  |  |  |  |
| CC(=O)NC(CCCCNC(=O)OC(C)(C)C)C(=O)O (stereo unspecified) |  |  |  | > 100 |  |  | > 100 | > 100 | > 100 |  |  | > 100 |  |  |  |  |  |  |  |  |
| COC(=O)C1=COC2OC3/C(=C\c4ccc(O)c(OC)c4)C(=O)OC34C=CC1C24 (stereo unspecified) | 31.2 | 35.1 |  | 27.7 | 26.8 |  | 35.3 | > 100 | 43.8 | 25.2 | 31 |  |  |  |  |  |  |  |  |  |
| O=C(N1CCC(CN=c2cc3n(-c4ccc(Cl)cc4)c4ccccc4nc-3cc2Nc2ccc(Cl)cc2)CC1)N1CC1 | 3.13 |  | 1.5 | 3.64 | 3.21 | 1.3 µM | 3.69 | 3.91 |  |  | 4.64 | 3.22 | 1.63 |  | 1.4 |  |  | 2250 | 1.53 | 792 |
| CCOc1ccc(N=Nc2ccc3oc(=O)c(/C(C)=N\NC(=O)CC(=O)Nc4ccc(Cl)cc4)cc3c2)cc1 | 33.5 | 81.1 |  |  | 60.7 |  | 41.5 | 28.8 | > 100 |  | 41.8 | 34.7 |  |  |  |  |  |  |  |  |
